In experiment [1] the target is T1, β-gly W33G (Saccharolobus solfataricus, UniProt P22498, W33G). Description: 19F NMR competition assay with 6-fluoroindole reporter, β-gly W33G. The format is binding, Sulfolobus solfataricus. To be noted: 2 mM 6-fluoroindole, 500 μM protein; for displacement of 6-fluoroindole reporter (19F peak sharpening): 5 mM competitor.
The target in experiment [2] is T1, β-gly W33G. The experiment in a line: β-glycosidase enzyme assay, rescue of β-gly W33G by effector ligands. It is filed as biochemical, Sulfolobus solfataricus. As to conditions: for rescue of enzyme activity (in words) / enhancement of initial velocity relative to apo enzyme: 2 mM effector; for rescue of enzyme activity (in words) / agonist class / concentration dependence of initial velocity / effector dissociation constant KD (in words) / linkage term W (in words): 750 μM FDGal; for agonist class: concentration dependence; for concentration dependence of initial velocity / effector dissociation constant KD (in words) / linkage term W (in words): up to 5 mM effector; for effector dissociation constant KD (in words) / linkage term W (in words): fit of concentration dependence.

For the next experiment, the target named is β-gly W33A (Saccharolobus solfataricus, UniProt P22498, W33A). The experiment in a line: β-glycosidase enzyme assay, rescue of β-gly W33A. The format is biochemical, Sulfolobus solfataricus. As to conditions: 750 μM FDGal.
A further experiment has as its target β-gly W33G_V37A (Saccharolobus solfataricus, UniProt P22498, V37A/W33G). Description: β-glycosidase enzyme assay, rescue of β-gly W33G_V37A. The format is biochemical, Sulfolobus solfataricus.
The target of a further experiment is T2, WT β-gly (Saccharolobus solfataricus, UniProt P22498).
T2 sequence (P22498 1-489): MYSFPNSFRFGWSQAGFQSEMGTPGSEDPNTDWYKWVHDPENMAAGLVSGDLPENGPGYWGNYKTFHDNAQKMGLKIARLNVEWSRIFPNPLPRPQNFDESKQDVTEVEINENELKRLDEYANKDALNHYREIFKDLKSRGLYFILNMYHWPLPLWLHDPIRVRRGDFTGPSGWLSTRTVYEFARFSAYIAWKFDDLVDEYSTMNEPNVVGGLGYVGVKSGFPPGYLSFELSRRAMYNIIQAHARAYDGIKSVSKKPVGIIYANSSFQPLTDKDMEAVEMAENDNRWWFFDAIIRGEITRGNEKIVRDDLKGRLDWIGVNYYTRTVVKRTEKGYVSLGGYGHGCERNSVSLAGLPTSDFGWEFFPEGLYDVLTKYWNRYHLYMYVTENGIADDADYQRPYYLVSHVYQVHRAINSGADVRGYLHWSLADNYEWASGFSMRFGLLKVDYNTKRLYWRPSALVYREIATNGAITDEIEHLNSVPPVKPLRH
The experiment in a line: 19F NMR reporter binding, wild type β-gly. To be noted: 2 mM 6-fluoroindole, 500 μM WT protein. Set-up: species or system Sulfolobus solfataricus.

Experiment [3] has as its target T1, β-gly W33G. To be noted: 10 mM indole, cited from earlier work.
The mark [4] stands for this setting: fit of concentration dependence.

Molecules are shown by their SMILES. “Also recorded” adds a separate entry of the source.

We go through seven compounds from paper PMC5161622 (ACS synthetic biology, 2016).

Chain of β-gly W33G_V37A (P22498 whole entry W33G/V37A): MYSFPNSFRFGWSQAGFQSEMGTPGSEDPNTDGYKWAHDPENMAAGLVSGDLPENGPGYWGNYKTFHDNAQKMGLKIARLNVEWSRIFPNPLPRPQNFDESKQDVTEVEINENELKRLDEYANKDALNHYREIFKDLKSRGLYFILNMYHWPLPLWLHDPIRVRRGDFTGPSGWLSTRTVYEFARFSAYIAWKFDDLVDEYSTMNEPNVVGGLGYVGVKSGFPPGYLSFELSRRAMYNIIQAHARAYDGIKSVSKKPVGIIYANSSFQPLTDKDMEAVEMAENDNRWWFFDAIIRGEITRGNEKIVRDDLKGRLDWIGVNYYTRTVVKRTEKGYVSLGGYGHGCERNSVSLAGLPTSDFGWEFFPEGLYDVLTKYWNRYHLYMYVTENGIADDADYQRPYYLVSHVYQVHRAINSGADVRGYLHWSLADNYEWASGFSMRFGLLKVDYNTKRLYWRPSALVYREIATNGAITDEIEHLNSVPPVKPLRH
Chain of β-gly W33A (P22498 whole entry W33A): as the sequence (P22498 whole entry W33G/V37A) above, with G33A, A37V counted along it
T1 sequence (P22498 whole entry W33G): as the sequence (P22498 whole entry W33G/V37A) above, with A37V counted along it

Turning to `Cc1cc2ccccc2[nH]1` [2-methylindole], the “displacement of 6-fluoroindole reporter (19F peak sharpening)” value (“displacement of 6-fluoroindole reporter” for short) on β-gly W33G [1] was “very little, if any, peak sharpening; also recorded: does not bind to this site”. In addition, on β-gly W33G [2], the “rescue of enzyme activity (in words)” value is “no increase in activity over the apo enzyme”.
For the compound `Cc1c[nH]c2ccccc12` [3-methylindole], at β-gly W33G [1], the “displacement of 6-fluoroindole reporter” value was “analogous peak sharpening”. Moreover, on β-gly W33G [2], the agonist class entry was “partial agonists”, the “concentration dependence of initial velocity” value (“concentration dependence” for short) was “dose-dependent increases in the initial velocity”, the “rescue of enzyme activity (in words)” value was “most rescue; also recorded: the next best rescuing compound” and the “effector dissociation constant KD (in words)” value is listed as “slightly better than for indole; also recorded: superior KD”. Further, at β-gly W33G [2], the “linkage term W (in words)” value is recorded as “worse than for indole”. Moreover, the “enhancement of initial velocity relative to apo enzyme” value on β-gly W33G [2] (FDGlc substrate 250 μM, indole versus 3-methylindole) is on record as “difference in rescue between these substrates is greatly reduced”. For the same compound, the “rescue of enzyme activity (in words)” value at β-gly W33A is listed as “rescued activity better than indole”. Besides, the “linkage term W (in words)” value on β-gly W33A (setting [4]) is “lower for W33A than for W33G”.
For `Fc1ccc2[nH]ccc2c1` [5-fluoroindole], at β-gly W33G [2], the “concentration dependence” value is “enhanced β-glycosidase activity at each of the concentrations we tested”, the “effector dissociation constant KD (in words)” value is given as “KD favors 5-fluoroindole” and the “linkage term W (in words)” value was “W favors indole”.
With `Cc1ccc2[nH]ccc2c1` [5-methylindole], the “rescue of enzyme activity (in words)” value on β-gly W33G_V37A (2 mM effector, 750 μM FDGal) was “superior over indole”. Also, the “ligand efficiency (binding free energy per non-hydrogen atom)” value on β-gly W33G_V37A (5-methylindole / β-gly W33G_V37A switch) is listed as −0.43 kcal/mol·atom. Further, on β-gly W33G_V37A (fit of concentration dependence, 750 μM FDGal), the “binding affinity KD (in words)” value is on record as “almost an order of magnitude tighter than that of indole”.
Regarding `Fc1ccc2cc[nH]c2c1` [6-fluoroindole], the results for the “19F signal of reporter upon addition of protein” value on β-gly W33G [1] (covalent substrate analog attached) and on WT β-gly were “considerable peak broadening” and “no change to this peak”, respectively. Moreover, the “rescue of enzyme activity (in words)” value at β-gly W33G [2] is recorded as “very similar level as indole itself”.
In the case of `CNc1ccccc1` [N-methylaniline], on β-gly W33G [1], the “displacement of 6-fluoroindole reporter” value is given as “analogous peak sharpening”. Also, at β-gly W33G [2], the agonist class result is given as “partial agonists”, the “concentration dependence” value is reported as “dose-dependent increases in the initial velocity”, the “rescue of enzyme activity (in words)” value is “intermediate rescue” and the “linkage term W (in words)” value is on record as “superior W value”. Also, the “rescue of enzyme activity (in words)” value on β-gly W33A is “better than either indole or 3-methylindole”. Moreover, on β-gly W33A (setting [4]), the “binding affinity KD (in words)” value is “poor binding affinity” and the “linkage term W (in words)” value is “highest value of W”.
Take `c1ccc2[nH]ccc2c1` [indole]: the “displacement of 6-fluoroindole reporter” value on β-gly W33G [1] is recorded as “signal sharpens”. The “restoration of kcat/Km relative to wild type” value at β-gly W33G [3] (W33G alone 730-fold decrease) was “completely restored”. Further, the “restoration of wild type activity” value at β-gly W33G [3] was “fully restored wild type activity”. Also, at β-gly W33G [2], the agonist class entry was “full agonist”, the “concentration dependence” value is listed as “dose-dependent increases in the initial velocity”, the “rescue of enzyme activity (in words)” value is on record as “about twice the activity of 5-methylindole” and the “linkage term W (in words)” value was “highest linkage term (W)”. Besides, at β-gly W33G [2] (FDGal substrate 250 μM), the “enhancement of initial velocity relative to apo enzyme” value was “better rescue with 2 mM indole than with 2 mM 3-methylindole”. The “ligand efficiency (binding free energy per non-hydrogen atom)” value on β-gly W33G [2] (binding to β-gly W33G) is −0.31 kcal/mol·atom. For the same compound, at β-gly W33A (setting [4]), the “linkage term W (in words)” value is “lower for W33A than for W33G”.
